Legend:
HIV-16R = test: Anti-HIV activity, HIV-16R in MT-4 cells; assay type: cell-based, HIV-1; details: Human immunodeficiency virus 1, MT4
Method: (§1) The compounds of the invention were also evaluated against various other HIV strains and cell lines utilizing the assay methodology described above. The compounds were additionally evaluated against clinical isolates of HIV strains.

HIV-1A17 = test: Anti-HIV activity, HIV-1A17 in MT-2 cells; assay type: cell-based; details: Human immunodeficiency virus 1, MT2
Method: as §1

[1] = target: T1, HIV-1 Nucleocapsid Protein (NCp7) (Human immunodeficiency virus type 1 group M subtype B, UniProt P12493); test: Zinc extrusion assay (TSQ fluorescence) from the zinc fingers of HIV-1 nucleocapsid protein (NCp7); assay type: biochemical; details: 10 μM compound, 2.8 μM NCp7, pH 7.4, 26° C., 90 minutes
T1 construct: The NCp7 protein containing 2 Zn-fingers and 2 Zn ions is incubated with drug
Procedure, shortened: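 Purified NCp7 (2.8 μM, 2 Zn ions) incubated with 10 μM compound and 47 μM TSQ at pH 7.4, 26° C, 90 min; released Zn read by TSQ fluorescence (ex 355, em 400 nm) over time. % extrusion = measured fluorescence over that for full theoretical Zn release (5.6 μM) ×100.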

HIV-1 = test: HIV H9 cell assay, anti-HIV-1 activity; assay type: cell-based; details: Human immunodeficiency virus 1, H9, 168 h, read-out: EC50 (Effective Concentration which protects cells from viral cytopathic effects)
Excerpt: Another test system utilized to evaluate the invention compounds is called HIV H9 assay. The HIV H9 cell assay measures the inhibitor concentration required to suppress HIV-1 virus replication. In this system, viral growth occurs through multiple rounds of the life-cycle. Any suppression of the replication kinetics results in a geometric decrease in virus production. As a result, this assay is a sensitive means of measuring the ability of a compound to inhibit HIV-1 viral replication.
The H9 T-cell line is batch infected with HIV virus at an M0I of 0.01. After 2 hours absorption, the cells are washed, resuspended in RPMI-1640/10% fetal calf serum, and seeded at […] of a 96-well plate. A duplicate plate of uninfected H9 cells is prepared for the cytotoxicity assay. Drugs are serially diluted 1/3.16 in DMSO, transferred to media at an 8× concentration, and then added to the cultures in triplicate. The final DMSO concentration of 0.002 (0.2%).
Viral production is measured by RT assay and cytotoxicity is measured by XTT assay at 7 days post-infection. The RT assay is performed as a modification of Borroto-Esoda and Boone, J. Virol., 1991;65:1952-1959 and quantitated using a Molecular Dynamics Phosphoimager with Imagequant software. The XTT assay is performed as a modification of Roehm, et al., J. Immuno. Methods., 1991;142:257-265 and quantitated using a molecular Devices Thermomax plate reader with Softmax software.
Data is electronically transferred to a Microsoft Excell spreadsheet for analysis. The RT assay values equivalent to 50% and 90% inhibition of virus production are calculated from the untreated controls. The concentrations of inhibitor required to produce these values (IC50 and IC90) are interpolated from data points flanking these RT activities. The XTT assay values equivalent to 50% cytotoxicity are calculated from the untreated controls. The concentrations of inhibitor required to produce this value are interpolated from data points flanking these XTT values.

Structure (SMILES) | EC50 (HIV-16R) [nM] | EC50 (HIV-1A17) [nM] | % Zinc Extrusion Relative to Control [1] [%] | EC50 (HIV-1) [nM]
NS(=O)(=O)c1ccc(NC(=O)c2ccccc2SSc2ccccc2C(=O)Nc2ccc(S(N)(=O)=O)cc2)cc1 [Example 1] | 1900 | 600 | 20 | 700
CC(=O)Nc1ccc(SSc2ccc(NC(C)=O)cc2C(N)=O)c(C(N)=O)c1 [Example 9, 2,2'-Dithiobis(5-acetylamino)benzamide] | – | – | 77 | 1700
